Results published in patent publication US10167262B2, “Herbicidal substituted 3-arylpyrazoles” (FMC CORPORATION, priority 2014, dated 2019).

Experiments:
Assay type in all cases: in vivo
[1] = tested on: waterhemp_RES1, (ALS & Triazine resistant common waterhemp, Amaranthus rudis); assay: Test E postemergence greenhouse test, plant response rating 0-100; settings: scale 0 to 100
Summary of the method: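 Visual ratings, 0 (no effect) to 100 (complete control), made versus controls 14–21 days after postemergence application in the greenhouse. Plants were at 1- to 4-leaf stage (2–18 cm) in peat moss/vermiculite potting medium.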

[2] = tested on: nightshade (eastern black nightshade, Solanum ptycanthum); assay: Test E pre-/postemergence greenhouse test, plant response rating 0-100; settings: Preemergence, scale 0 to 100
Summary of the method: (§1)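 Pre- and postemergence sprays, vehicle non-phytotoxic solvent containing surfactant; postemergence plants 2–18 cm tall at the 1–4-leaf stage. Scored against controls after 14 to 21 days in a greenhouse, 0 being no effect and 100 complete control.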

[3] = tested on: lambsquarters (Chenopodium album); assay: as above; settings: Preemergence, scale 0 to 100
Summary of the method: as §1

kochia (Kochia scoparia) = assay: as above; settings: Preemergence, scale 0 to 100
Summary of the method: as §1

[4] = tested on: large (Lg) crabgrass (Digitaria sanguinalis); assay: as above; settings: Preemergence, scale 0 to 100
[5] = tested on: green foxtail (Setaria viridis); assay: as above; settings: Preemergence, scale 0 to 100
[6] = tested on: giant foxtail (Setaria faberii); assay: as above; settings: Preemergence, scale 0 to 100
[7] = tested on: yellow nutsedge (Cyperus esculentus); assay: as above; settings: Preemergence, scale 0 to 100
[8] = tested on: johnsongrass (Sorghum halepense); assay: as above; settings: Preemergence, scale 0 to 100
[9] = tested on: morningglory (Ipomoea coccinea); assay: as above; settings: Preemergence, scale 0 to 100
[10] = tested on: downy bromegrass (Bromus tectorum); assay: Test D postemergence controlled growth environment test, plant response rating 0-100
Excerpt: (§2) Seeds of plant species selected from bluegrass (annual bluegrass, Poa annua), blackgrass (Alopecurus myosuroides), canarygrass (Phalaris minor), chickweed (common chickweed, Stellaria media), galium (catchweed bedstraw, Galium aparine), downy bromegrass (Bromus tectorum), field violet (Viola arvensis), green foxtail (Setaria viridis), deadnettle (henbit deadnettle, Lamium amplexicaule), Italian ryegrass (Lolium multiflorum), kochia (Kochia scoparia), lambsquarters (Chenopodium album), oilseed rape (Brassica napus), pigweed (Amaranthus retroflexus), Russian thistle (Salsola kali), spring barley (Hordeum vulgare), spring wheat (Triticum aestivum), wild buckwheat (Polygonum convolvulus), wild mustard (Sinapis arvensis), wild oat (Avena fatua), windgrass (Apera spica-venti), winter barley (Hordeum vulgare), and winter wheat (Triticum aestivum) were planted in pots containing Redi-Earth® planting medium (Scotts Company, 14111 Scottslawn Road, Marysville, Ohio 43041) comprising spaghnum peat moss, vermiculite, wetting agent and starter nutrients and treated with postemergence applications of test chemicals formulated in a non-phytotoxic solvent mixture which included a surfactant. Plants ranged in height from 2 to 18 cm (1- to 4-leaf stage). Treated plants and controls were maintained in a controlled growth environment for 14 days after which time all species were compared to controls and visually evaluated. Plant response ratings, summarized in Table D, are based on a scale of 0 to 100 where 0 is no effect and 100 is complete control. A dash (-) response means no test result.

[11] = tested on: spring barley (Hordeum vulgare); assay: as above
Excerpt: as §2

[12] = tested on: green foxtail (Setaria viridis); assay: as above
Excerpt: as §2

[13] = tested on: cocklebur (common cocklebur, Xanthium strumarium); assay: Test E pre-/postemergence greenhouse test, plant response rating 0-100; settings: Preemergence, scale 0 to 100
Summary of the method: as §1

C#CCn1cc(C(=O)c2ccccc2)c(-c2cc(Cl)cc(Cl)c2)n1 [Compound 39, [3-(3,5-dichlorophenyl)-1-(2-propyn-1-yl)-1H-pyrazol-4-yl]phenylmethanone]
Plant response rating, Waterhemp_RES1 ([1]; 31 g ai/ha): 85
Plant response rating, Waterhemp_RES1 ([1]; 62 g ai/ha): 85
Plant response rating, Waterhemp_RES1 ([1]; 125 g ai/ha): 90
Plant response rating, Waterhemp_RES1 ([1]; 250 g ai/ha): 90
Plant response rating, Waterhemp_RES1 ([1]; 500 g ai/ha): 95
Nightshade plant response rating ([2]; 62 g ai/ha): 0
Nightshade plant response rating ([2]; 125 g ai/ha): 0
Nightshade plant response rating ([2]; 250 g ai/ha): 100
Nightshade plant response rating ([2]; 500 g ai/ha): 95
Lambsquarters plant response rating ([3]; 62 g ai/ha): 90
Lambsquarters plant response rating ([3]; 125 g ai/ha): 95
Lambsquarters plant response rating ([3]; 250 g ai/ha): 90
Lambsquarters plant response rating ([3]; 500 g ai/ha): 100
Kochia plant response rating (kochia (Kochia scoparia); 62 g ai/ha): 0
Kochia plant response rating (kochia (Kochia scoparia); 125 g ai/ha): 30
Kochia plant response rating (kochia (Kochia scoparia); 250 g ai/ha): 65
Kochia plant response rating (kochia (Kochia scoparia); 500 g ai/ha): 75
Crabgrass, Large plant response rating ([4]; 62 g ai/ha): 0
Crabgrass, Large plant response rating ([4]; 125 g ai/ha): 0
Crabgrass, Large plant response rating ([4]; 250 g ai/ha): 0
Crabgrass, Large plant response rating ([4]; 500 g ai/ha): 0
Foxtail, Green plant response rating ([5]; 62 g ai/ha): 0
Foxtail, Green plant response rating ([5]; 125 g ai/ha): 0
Foxtail, Green plant response rating ([5]; 250 g ai/ha): 0
Foxtail, Green plant response rating ([5]; 500 g ai/ha): 0
Foxtail, Giant plant response rating ([6]; 62 g ai/ha): 0
Foxtail, Giant plant response rating ([6]; 125 g ai/ha): 0
Foxtail, Giant plant response rating ([6]; 250 g ai/ha): 0
Foxtail, Giant plant response rating ([6]; 500 g ai/ha): 0
Nutsedge, Yellow plant response rating ([7]; 62 g ai/ha): 0
Nutsedge, Yellow plant response rating ([7]; 125 g ai/ha): 0
Nutsedge, Yellow plant response rating ([7]; 250 g ai/ha): 0
Nutsedge, Yellow plant response rating ([7]; 500 g ai/ha): 0
Johnsongrass plant response rating ([8]; 62 g ai/ha): 0
Johnsongrass plant response rating ([8]; 125 g ai/ha): 0
Johnsongrass plant response rating ([8]; 250 g ai/ha): 0
Johnsongrass plant response rating ([8]; 500 g ai/ha): 0
Morningglory plant response rating ([9]; 62 g ai/ha): 0
Morningglory plant response rating ([9]; 125 g ai/ha): 0
Morningglory plant response rating ([9]; 250 g ai/ha): 0
Morningglory plant response rating ([9]; 500 g ai/ha): 0
Plant response rating, Bromegrass, Downy ([10]; 16 g ai/ha): 0
Plant response rating, Bromegrass, Downy ([10]; 31 g ai/ha): 0
Plant response rating, Bromegrass, Downy ([10]; 62 g ai/ha): 0
Plant response rating, Bromegrass, Downy ([10]; 125 g ai/ha): 0
Plant response rating, Bromegrass, Downy ([10]; 250 g ai/ha): 0
Plant response rating, Barley, Spring ([11]; 16 g ai/ha): 0
Plant response rating, Barley, Spring ([11]; 31 g ai/ha): 0
Plant response rating, Barley, Spring ([11]; 62 g ai/ha): 0
Plant response rating, Barley, Spring ([11]; 125 g ai/ha): 0
Plant response rating, Barley, Spring ([11]; 250 g ai/ha): 0
Plant response rating, Foxtail, Green ([12]; 16 g ai/ha): 0
Plant response rating, Foxtail, Green ([12]; 31 g ai/ha): 0
Plant response rating, Foxtail, Green ([12]; 62 g ai/ha): 0
Plant response rating, Foxtail, Green ([12]; 125 g ai/ha): 0
Plant response rating, Foxtail, Green ([12]; 250 g ai/ha): 10

Clc1cc(Cl)cc(-c2n[nH]cc2C(=NN2CCCC2)c2ccccc2)c1 [Compound 30, N-[[3-(3,5-dichlorophenyl)-1H-pyrazol-4-yl]phenylmethylene]-1-pyrrolidinamine]
Plant response rating, Bromegrass, Downy ([10]; 16 g ai/ha): 0
Plant response rating, Bromegrass, Downy ([10]; 31 g ai/ha): 0
Plant response rating, Bromegrass, Downy ([10]; 62 g ai/ha): 0
Plant response rating, Bromegrass, Downy ([10]; 125 g ai/ha): 0
Plant response rating, Bromegrass, Downy ([10]; 250 g ai/ha): 0
Plant response rating, Barley, Spring ([11]; 16 g ai/ha): 0
Plant response rating, Barley, Spring ([11]; 31 g ai/ha): 0
Plant response rating, Barley, Spring ([11]; 62 g ai/ha): 0
Plant response rating, Barley, Spring ([11]; 125 g ai/ha): 0
Plant response rating, Barley, Spring ([11]; 250 g ai/ha): 0
Plant response rating, Foxtail, Green ([12]; 16 g ai/ha): 0
Plant response rating, Foxtail, Green ([12]; 31 g ai/ha): 0
Plant response rating, Foxtail, Green ([12]; 62 g ai/ha): 0
Plant response rating, Foxtail, Green ([12]; 125 g ai/ha): 0
Plant response rating, Foxtail, Green ([12]; 250 g ai/ha): 0

Cn1cc(C(=O)c2ccccc2)c(-c2cc(Cl)cc(Cl)c2)n1 [Compound 54, [3-(3,5-dichlorophenyl)-1-methyl-1H-pyrazol-4-yl]phenylmethanone]
Nightshade plant response rating ([2]; 125 g ai/ha): 0
Nightshade plant response rating ([2]; 250 g ai/ha): 0
Lambsquarters plant response rating ([3]; 125 g ai/ha): 68
Lambsquarters plant response rating ([3]; 250 g ai/ha): 86
Plant response rating, Lambsquarters ([3]; 1000 g ai/ha): 99
Kochia plant response rating (kochia (Kochia scoparia); 125 g ai/ha): 0
Kochia plant response rating (kochia (Kochia scoparia); 250 g ai/ha): 28
Plant response rating, Kochia (kochia (Kochia scoparia); 1000 g ai/ha): 97
Cocklebur plant response rating ([13]; 125 g ai/ha): 0
Cocklebur plant response rating ([13]; 250 g ai/ha): 0
Morningglory plant response rating ([9]; 125 g ai/ha): 7
Morningglory plant response rating ([9]; 250 g ai/ha): 12

O=C(c1ccccc1)c1cn(CO)nc1-c1cc(Cl)cc(Cl)c1 [Compound 15, [3-(3,5-dichlorophenyl)-1-(hydroxymethyl)-1H-pyrazol-4-yl]phenylmethanone]
Kochia plant response rating (kochia (Kochia scoparia); 31 g ai/ha): 0
Kochia plant response rating (kochia (Kochia scoparia); 62 g ai/ha): 40
Kochia plant response rating (kochia (Kochia scoparia); 125 g ai/ha): 20
Kochia plant response rating (kochia (Kochia scoparia); 250 g ai/ha): 75
Kochia plant response rating (kochia (Kochia scoparia); 500 g ai/ha): 80
Cocklebur plant response rating ([13]; 31 g ai/ha): 0
Cocklebur plant response rating ([13]; 62 g ai/ha): 0
Cocklebur plant response rating ([13]; 125 g ai/ha): 0
Crabgrass, Large plant response rating ([4]; 31 g ai/ha): 0
Crabgrass, Large plant response rating ([4]; 62 g ai/ha): 0
Crabgrass, Large plant response rating ([4]; 125 g ai/ha): 0
Crabgrass, Large plant response rating ([4]; 250 g ai/ha): 0
Crabgrass, Large plant response rating ([4]; 500 g ai/ha): 0
Foxtail, Green plant response rating ([5]; 31 g ai/ha): 0
Foxtail, Green plant response rating ([5]; 62 g ai/ha): 0
Foxtail, Green plant response rating ([5]; 125 g ai/ha): 0
Foxtail, Green plant response rating ([5]; 250 g ai/ha): 0
Foxtail, Green plant response rating ([5]; 500 g ai/ha): 0
Foxtail, Giant plant response rating ([6]; 31 g ai/ha): 0
Foxtail, Giant plant response rating ([6]; 62 g ai/ha): 0
Foxtail, Giant plant response rating ([6]; 125 g ai/ha): 0
Foxtail, Giant plant response rating ([6]; 250 g ai/ha): 0
Foxtail, Giant plant response rating ([6]; 500 g ai/ha): 0
Nutsedge, Yellow plant response rating ([7]; 31 g ai/ha): 15
Nutsedge, Yellow plant response rating ([7]; 62 g ai/ha): 35
Nutsedge, Yellow plant response rating ([7]; 125 g ai/ha): 10
Nutsedge, Yellow plant response rating ([7]; 250 g ai/ha): 0
Nutsedge, Yellow plant response rating ([7]; 500 g ai/ha): 0
Johnsongrass plant response rating ([8]; 31 g ai/ha): 0
Johnsongrass plant response rating ([8]; 62 g ai/ha): 0
Johnsongrass plant response rating ([8]; 125 g ai/ha): 0
Johnsongrass plant response rating ([8]; 250 g ai/ha): 0
Johnsongrass plant response rating ([8]; 500 g ai/ha): 0
Morningglory plant response rating ([9]; 62 g ai/ha): 0
Morningglory plant response rating ([9]; 125 g ai/ha): 0
Morningglory plant response rating ([9]; 250 g ai/ha): 0
Morningglory plant response rating ([9]; 500 g ai/ha): 0
